The values that follow come from patent US20220056043A1, “NITROGEN-CONTAINING FUSED CYCLIC COMPOUND, PREPARATION METHOD THEREFOR AND USE THEREOF” (SICHUAN KELUN-BIOTECH BIOPHARMACEUTICAL CO., LTD., priority 2019, published 2022).

Data set [1] addresses T1, CYP1A2 (Homo sapiens, UniProt P05177).
T1 construct: purchased
T1 sequence (P05177 1-516): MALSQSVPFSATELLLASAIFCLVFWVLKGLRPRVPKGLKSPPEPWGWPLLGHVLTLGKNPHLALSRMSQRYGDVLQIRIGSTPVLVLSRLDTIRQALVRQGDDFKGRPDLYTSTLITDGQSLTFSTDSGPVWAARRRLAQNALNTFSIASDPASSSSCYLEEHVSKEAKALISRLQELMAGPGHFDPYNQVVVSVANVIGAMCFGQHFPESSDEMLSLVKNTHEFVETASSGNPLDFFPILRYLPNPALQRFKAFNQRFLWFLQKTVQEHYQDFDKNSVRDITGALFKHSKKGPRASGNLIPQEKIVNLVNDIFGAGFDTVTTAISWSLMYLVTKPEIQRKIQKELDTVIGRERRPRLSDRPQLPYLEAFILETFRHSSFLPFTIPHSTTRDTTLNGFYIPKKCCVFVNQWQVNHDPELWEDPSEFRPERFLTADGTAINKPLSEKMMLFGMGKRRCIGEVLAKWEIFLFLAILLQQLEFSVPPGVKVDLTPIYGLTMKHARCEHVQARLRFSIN
Put plainly: CYP enzyme inhibition test, P450-Glo CYP1A2 Screening System. The format is in vitro ADME. The conditions noted are these: for inhibitory effect on CYP1A2: conclusion in words. Here is the method:
(§1) Experimental Example 6: CYP Enzyme Inhibition Test CYP450 is the most important enzyme system in drug metabolism. The enzymes involved in metabolism interact with drugs, and the most important ones are CYP1A2, CYP2D6 and CYP3A4. P450-Glo™ CYP1A2 Screening System, Vivid® CYP2D6 Cyan Screening Kit and Vivid® CYP3A4 Red Screening Kit were used in this test, and the inhibitory effects of the compounds on CYP1A2, CYP2D6 and CYP3A4 were determined according to the instructions of the kit.

Data set [2] has as its target T2, CYP2D6 (Homo sapiens, UniProt P10635).
T2 construct: purchased
As to the kind of experiment: CYP enzyme inhibition test, Vivid CYP2D6 Cyan Screening Kit. The data set is classed as in vitro ADME. The conditions noted are these: for inhibitory effect on CYP2D6: conclusion in words. Here is the method:
as §1

Data set [3] has as its target T3, CYP3A4 (Homo sapiens, UniProt P08684).
T3 construct: purchased
Put plainly: CYP enzyme inhibition test, Vivid CYP3A4 Red Screening Kit. The settings on record: for inhibitory effect on CYP3A4: conclusion in words. The format is in vitro ADME. Here is the method: as §1

The target of data set [4] is T4, hERG potassium channel (Homo sapiens, UniProt Q12809).
T4 sequence (Q12809 whole entry): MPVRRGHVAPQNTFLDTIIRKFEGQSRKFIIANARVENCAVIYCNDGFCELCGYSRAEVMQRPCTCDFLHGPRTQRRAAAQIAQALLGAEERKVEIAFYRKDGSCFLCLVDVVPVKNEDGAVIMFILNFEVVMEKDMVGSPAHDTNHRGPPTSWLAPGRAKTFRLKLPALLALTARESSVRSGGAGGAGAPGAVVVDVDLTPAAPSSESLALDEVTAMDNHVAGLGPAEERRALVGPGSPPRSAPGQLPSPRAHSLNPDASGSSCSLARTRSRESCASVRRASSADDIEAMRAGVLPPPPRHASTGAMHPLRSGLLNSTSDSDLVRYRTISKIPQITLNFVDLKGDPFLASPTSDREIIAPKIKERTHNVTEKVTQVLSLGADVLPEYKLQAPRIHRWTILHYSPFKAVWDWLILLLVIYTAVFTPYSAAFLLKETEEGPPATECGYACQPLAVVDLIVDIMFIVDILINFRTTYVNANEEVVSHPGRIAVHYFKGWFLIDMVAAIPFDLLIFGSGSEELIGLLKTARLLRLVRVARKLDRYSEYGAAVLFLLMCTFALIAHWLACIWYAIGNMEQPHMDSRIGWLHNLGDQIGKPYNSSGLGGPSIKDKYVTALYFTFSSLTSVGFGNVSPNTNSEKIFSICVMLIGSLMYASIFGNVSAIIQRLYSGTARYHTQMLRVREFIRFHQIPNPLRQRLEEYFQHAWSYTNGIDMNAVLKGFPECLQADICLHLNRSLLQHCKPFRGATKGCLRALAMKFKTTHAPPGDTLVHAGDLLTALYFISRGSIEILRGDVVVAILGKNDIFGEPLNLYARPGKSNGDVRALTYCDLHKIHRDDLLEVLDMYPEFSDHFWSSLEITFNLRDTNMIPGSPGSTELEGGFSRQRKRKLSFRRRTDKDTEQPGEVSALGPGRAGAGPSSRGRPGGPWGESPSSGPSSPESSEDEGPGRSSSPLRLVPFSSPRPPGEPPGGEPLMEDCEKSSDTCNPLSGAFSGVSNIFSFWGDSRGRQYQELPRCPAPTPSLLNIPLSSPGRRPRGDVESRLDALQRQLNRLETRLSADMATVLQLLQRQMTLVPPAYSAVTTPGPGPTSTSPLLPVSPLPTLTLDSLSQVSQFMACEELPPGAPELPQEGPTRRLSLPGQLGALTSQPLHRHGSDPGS
In data set [5] the target is T4, hERG potassium channel. Put plainly: in vitro.
The target in data set [6] is T4, hERG potassium channel. As to the kind of experiment: cell-based.
For data set [7], the target named is T4, hERG potassium channel. Put plainly: hERG test, Predictor hERG Fluorescence Polarization Assay Kit. The settings on record: test concentrations 1 μM and 10 μM. The arrangement: expressed in transfected cells; host or cells: HEK-293. The format is binding. The source says: Experimental Example 5: hERG Test
1. Predictor™ hERG Fluorescence Polarization Assay Kit (ThermoFisher) was used to test the inhibitory effect of the compounds on hERG potassium channel according to the instructions of the kit.

T3 sequence (P08684 whole entry): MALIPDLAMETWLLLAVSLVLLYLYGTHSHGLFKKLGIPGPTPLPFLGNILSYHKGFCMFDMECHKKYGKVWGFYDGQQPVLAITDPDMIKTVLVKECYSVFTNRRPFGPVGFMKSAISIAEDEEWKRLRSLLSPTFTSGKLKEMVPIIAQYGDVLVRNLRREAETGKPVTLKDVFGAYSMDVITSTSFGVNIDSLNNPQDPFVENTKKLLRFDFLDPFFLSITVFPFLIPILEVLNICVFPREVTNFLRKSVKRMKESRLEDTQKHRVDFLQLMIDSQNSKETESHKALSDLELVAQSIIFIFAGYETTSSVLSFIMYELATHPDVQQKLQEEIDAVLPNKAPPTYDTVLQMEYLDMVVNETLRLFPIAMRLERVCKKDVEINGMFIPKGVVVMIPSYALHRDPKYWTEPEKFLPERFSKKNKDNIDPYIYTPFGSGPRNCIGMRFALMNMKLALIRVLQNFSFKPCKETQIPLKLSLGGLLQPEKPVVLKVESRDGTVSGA
T2 sequence (P10635 whole entry): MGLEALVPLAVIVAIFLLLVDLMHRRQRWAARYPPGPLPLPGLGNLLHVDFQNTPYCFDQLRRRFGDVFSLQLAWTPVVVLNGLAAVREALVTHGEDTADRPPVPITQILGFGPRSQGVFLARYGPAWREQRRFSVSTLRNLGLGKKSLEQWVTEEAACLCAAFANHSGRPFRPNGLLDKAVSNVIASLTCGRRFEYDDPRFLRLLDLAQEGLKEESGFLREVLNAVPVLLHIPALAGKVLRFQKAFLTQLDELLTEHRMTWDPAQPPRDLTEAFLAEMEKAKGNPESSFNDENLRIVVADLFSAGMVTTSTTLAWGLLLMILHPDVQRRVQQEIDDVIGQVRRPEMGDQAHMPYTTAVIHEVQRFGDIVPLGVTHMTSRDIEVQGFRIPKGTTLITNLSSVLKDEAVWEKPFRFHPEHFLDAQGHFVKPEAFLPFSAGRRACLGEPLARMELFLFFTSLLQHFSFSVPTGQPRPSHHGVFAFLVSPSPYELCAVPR

Regarding `Nc1cc(N[C@@H]2CC[C@H](O)C2)c2sc(-c3ccn[nH]3)cc2n1` [Compound 31, (1S,3R)-3-((5-amino-2-(1H-pyrazol-5-yl)thieno[3,2-b]pyridin-7-yl)amino)cyclopentanol], in data set [1], the IC50 is greater than 10 µM and the “inhibitory effect on CYP1A2” value is recorded as “no apparent inhibitory effects”. Also, in data set [2], the IC50 is greater than 10 µM and the “inhibitory effect on CYP2D6” value is reported as “no apparent inhibitory effects”. Further, in data set [3], the IC50 was greater than 10 µM and the “inhibitory effect on CYP3A4” value was “no apparent inhibitory effects”.
For the molecule `COCCNc1cc(N)nc2cc(-c3ccn[nH]3)sc12` [Compound 100, N^7-(2-methoxyethyl)-2-(1H-pyrazol-5-yl)thieno[3,2-b]pyridine-5,7-diamine], the “inhibitory effect on hERG” value in data set [4] is reported as “no apparent inhibitory effect”. Also, in data set [5], the inhibition at 10 μM stood at 5.42 ± 2.2%. This molecule showed a concentration for half-maximal inhibition (IC50) in data set [6] greater than 10 µM.
`COC(C)(C)CNc1cc(N)nc2cc(-c3ccn[nH]3)sc12` [Compound 111, N^7-(2′-methoxy-2′-methylpropyl)-2-(1H-pyrazol-5-yl)thieno[3,2-b]pyridine-5,7-diamine]: the IC50 in data set [7], in data set [1], in data set [2] and in data set [3] was greater than 10 µM in each case. In data set [1], the “inhibitory effect on CYP1A2” value is “no apparent inhibitory effects”. The “inhibitory effect on CYP2D6” value in data set [2] is listed as “no apparent inhibitory effects”. In data set [3], the “inhibitory effect on CYP3A4” value is recorded as “no apparent inhibitory effects”.
In the case of `Nc1cc(NC2COC2)c2sc(-c3ccn[nH]3)cc2n1` [Compound 112, N^7-(oxetan-3-yl)-2-(1H-pyrazol-5-yl)thieno[3,2-b]pyridine-5,7-diamine], in data set [7], the IC50 was greater than 10 µM. In addition, in data set [1], the IC50 is greater than 10 µM and the “inhibitory effect on CYP1A2” value was “no apparent inhibitory effects”. For the same molecule, in data set [2], the IC50 is greater than 10 µM and the “inhibitory effect on CYP2D6” value is recorded as “no apparent inhibitory effects”. Also, in data set [3], the IC50 was greater than 10 µM and the “inhibitory effect on CYP3A4” value was “no apparent inhibitory effects”.
Regarding `Nc1cc(NC2CCC(O)CC2)c2sc(-c3ccn[nH]3)cc2n1` (centres unmarked) [Compound 114, 4-((5-amino-2-(1H-pyrazol-5-yl)thieno[3,2-b]pyridin-7-yl)amino)-1-cyclohexanol], in data set [1], the IC50 is greater than 10 µM and the “inhibitory effect on CYP1A2” value was “no apparent inhibitory effects”. Further, in data set [2], the IC50 is greater than 10 µM and the “inhibitory effect on CYP2D6” value was “no apparent inhibitory effects”. In data set [3], the IC50 was greater than 10 µM and the “inhibitory effect on CYP3A4” value was “no apparent inhibitory effects”.
For the molecule `CC(C)(CO)CNc1cc(N)nc2cc(-c3ccn[nH]3)sc12` [Compound 115, 3-((5-amino-2-(1H-pyrazol-5-yl)thieno[3,2-b]pyridin-7-yl)amino)-2,2-dimethyl-1-propanol], the “inhibitory effect on hERG” value in data set [4] is reported as “no apparent inhibitory effect”. In addition, in data set [1], the IC50 is greater than 10 µM and the “inhibitory effect on CYP1A2” value is “no apparent inhibitory effects”. Further, the inhibition at 10 μM in data set [5] turned out to be 8.26 ± 3.66%. In data set [2], the IC50 is greater than 10 µM and the “inhibitory effect on CYP2D6” value was “no apparent inhibitory effects”. Moreover, in data set [3], the IC50 was greater than 10 µM and the “inhibitory effect on CYP3A4” value is recorded as “no apparent inhibitory effects”. The molecule further showed an IC50 in data set [6] greater than 10 µM.
Turning to `Nc1cc(NCC(F)F)c2sc(-c3ccn[nH]3)cc2n1` [Compound 116, N^7-(2,2-difluoroethyl)-2-(1H-pyrazol-5-yl)thieno[3,2-b]pyridine-5,7-diamine], the “inhibitory effect on hERG” value in data set [4] is reported as “no apparent inhibitory effect”. Besides, the inhibition at 10 μM in data set [5] stood at 18.5 ± 4.98%. Further, the IC50 in data set [6] is greater than 10 µM.
In the same order, the values of `Nc1cc(NCC2CCOCC2)c2sc(-c3ccn[nH]3)cc2n1` [Compound 120, 2-(1H-pyrazol-5-yl)-N^7-((tetrahydro-2H-pyran-4-yl)methyl)thieno[3,2-b]pyridine-5,7-diamine] are “no apparent inhibitory effect”, 11.7 ± 0.7% and greater than 10 µM.

For orientation: IC50 means the point on the concentration scale where inhibition reaches its midpoint. As usually defined, the inhibition is the change of the read-out against control, counted positive when it falls.
